# Reference: ChEMBL document CHEMBL1201862, “PubChem BioAssay data set” (2004)
# Activity calls are given as the source filed them.
# Assays:
# [1] = viability inhibitors of stage V gametocytes – luminescence, dose response (AID 1117278); type: functional, cell-based;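 note: gametocytes exposed to compound for 24 hours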
# [2] = viability loss in human Jurkat cells – cell-based, luminescence, cytotoxicity control for P. falciparum gametocyte viability project, dose response (AID 1117277); type: functional;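 note: potency reflects loss of cellular ATP meaning fewer viable cells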
# H9c2 = assay: cells; type: functional, cell-based; conditions: Rattus norvegicus, H9c2, Myocardium;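 note: confirmatory concentration-response retest of ultra-high-throughput screening hits for modulation of myocardial damage; cell death induced by hydrogen peroxide oxidative stress; compound pretreatment for 60 min then peroxide exposure for 2 h; potency is for protecting the cells against peroxide damage rather than for killing them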
# [3] = biological target: Mitogen-activated protein kinase 10 (Homo sapiens, UniProt P53779); assay: Dose response biochemical screening assay for inhibitors of c-Jun N-Terminal Kinase 3 (JNK3). [Related pubchem assays: 746 ]
# Chain of Mitogen-activated protein kinase 10 (P53779 whole entry): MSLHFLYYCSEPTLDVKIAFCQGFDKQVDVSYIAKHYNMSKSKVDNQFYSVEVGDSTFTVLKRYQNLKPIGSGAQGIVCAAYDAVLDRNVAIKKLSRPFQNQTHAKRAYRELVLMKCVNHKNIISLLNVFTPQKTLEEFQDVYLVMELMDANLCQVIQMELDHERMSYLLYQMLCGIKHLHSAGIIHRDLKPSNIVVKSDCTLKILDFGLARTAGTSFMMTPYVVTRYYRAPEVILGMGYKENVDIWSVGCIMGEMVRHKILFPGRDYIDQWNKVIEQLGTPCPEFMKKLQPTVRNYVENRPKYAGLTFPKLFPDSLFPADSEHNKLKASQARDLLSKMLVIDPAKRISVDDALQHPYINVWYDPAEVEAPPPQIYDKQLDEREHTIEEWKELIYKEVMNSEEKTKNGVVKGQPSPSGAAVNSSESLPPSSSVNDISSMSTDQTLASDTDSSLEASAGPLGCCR
# [4] = THP-1 cell cytotoxicity, dose response, cytotoxicity control for non-replicating M. tuberculosis project (AID 489025); type: functional
# cells = type: functional
# [5] = viability loss of HPDE-C7K cells – cell-based, fluorescence, HTS, primary screen (AID 431); type: functional; conditions: Homo sapiens
# [6] = microbe, parasite or virus in culture; type: functional; conditions: Mycobacterium tuberculosis
# [7] = HPDE-C7 pancreatic duct cell viability loss – fluorescence, HTS (AID 430); type: functional, cell-based; conditions: Homo sapiens
# HT-1080 = assay: HT1080 cell viability loss – fluorescence readout (AID 620); type: functional, cell-based; conditions: Homo sapiens
# [8] = biological target: T1, Heat shock factor protein 1 (Mus musculus, UniProt P38532); assay: decrease of HSF1-responsive luciferase luminescence – cell-based, NIH3T3, dose retest, confirmation (AID 2382); type: functional;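 note: NIH3T3 fibroblasts with HSF1-driven luciferase reporter stressed by proteasome inhibitor MG132; luminescence from HSF1-driven luciferase expression after 8 hours of MG132 stress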
# T1 sequence (P38532 whole entry): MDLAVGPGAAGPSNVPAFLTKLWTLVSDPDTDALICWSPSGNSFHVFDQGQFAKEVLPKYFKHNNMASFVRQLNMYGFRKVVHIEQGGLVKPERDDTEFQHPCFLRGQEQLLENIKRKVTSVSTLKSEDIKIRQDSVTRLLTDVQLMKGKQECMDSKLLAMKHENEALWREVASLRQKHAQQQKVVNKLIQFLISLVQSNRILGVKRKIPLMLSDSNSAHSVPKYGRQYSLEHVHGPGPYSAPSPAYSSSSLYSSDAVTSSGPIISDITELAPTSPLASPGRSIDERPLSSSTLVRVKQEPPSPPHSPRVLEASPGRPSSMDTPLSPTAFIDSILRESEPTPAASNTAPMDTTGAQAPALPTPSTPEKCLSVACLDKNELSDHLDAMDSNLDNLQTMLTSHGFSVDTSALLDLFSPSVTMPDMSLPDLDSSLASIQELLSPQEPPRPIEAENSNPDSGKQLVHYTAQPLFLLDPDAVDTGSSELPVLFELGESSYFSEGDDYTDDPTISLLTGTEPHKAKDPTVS
# [9] = biological target: Glyceraldehyde-3-phosphate dehydrogenase (Homo sapiens, UniProt P04406)
# [10] = biological target: Luciferin 4-monooxygenase (Photinus pyralis, UniProt P08659); assay: Counter Screen for Luciferase-based Assay Positives. [Related pubchem assays: 620, 618, 411 ]
# Chain of Luciferin 4-monooxygenase (P08659 whole entry): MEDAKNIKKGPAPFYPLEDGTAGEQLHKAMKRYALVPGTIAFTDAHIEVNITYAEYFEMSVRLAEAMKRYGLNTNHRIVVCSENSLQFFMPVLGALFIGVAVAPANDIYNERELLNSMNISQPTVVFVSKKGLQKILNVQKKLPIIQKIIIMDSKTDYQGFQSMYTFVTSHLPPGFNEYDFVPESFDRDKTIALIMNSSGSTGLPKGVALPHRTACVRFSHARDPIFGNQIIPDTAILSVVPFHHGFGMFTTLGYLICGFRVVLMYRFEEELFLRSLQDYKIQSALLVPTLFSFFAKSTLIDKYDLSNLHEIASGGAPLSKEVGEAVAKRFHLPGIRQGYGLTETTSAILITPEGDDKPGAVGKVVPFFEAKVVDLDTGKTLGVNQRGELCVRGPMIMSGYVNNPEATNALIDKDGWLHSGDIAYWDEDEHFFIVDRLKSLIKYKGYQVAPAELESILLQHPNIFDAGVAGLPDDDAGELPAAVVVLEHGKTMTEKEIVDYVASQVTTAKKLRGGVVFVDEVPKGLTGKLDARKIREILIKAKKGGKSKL
# [11] = biological target: T2, Microphthalmia-associated transcription factor (Homo sapiens, UniProt O75030); assay: reducers of TRPM1 reporter luminescence, concentration series – cell-based, SK-MEL-5, cherry-picked, set 3, MITF inhibitor project, dose response (AID 493073); type: functional;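 note: SK-MEL-5 melanoma cells with luciferase driven by the MITF target TRPM1 promoter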
# T2 sequence (O75030 whole entry): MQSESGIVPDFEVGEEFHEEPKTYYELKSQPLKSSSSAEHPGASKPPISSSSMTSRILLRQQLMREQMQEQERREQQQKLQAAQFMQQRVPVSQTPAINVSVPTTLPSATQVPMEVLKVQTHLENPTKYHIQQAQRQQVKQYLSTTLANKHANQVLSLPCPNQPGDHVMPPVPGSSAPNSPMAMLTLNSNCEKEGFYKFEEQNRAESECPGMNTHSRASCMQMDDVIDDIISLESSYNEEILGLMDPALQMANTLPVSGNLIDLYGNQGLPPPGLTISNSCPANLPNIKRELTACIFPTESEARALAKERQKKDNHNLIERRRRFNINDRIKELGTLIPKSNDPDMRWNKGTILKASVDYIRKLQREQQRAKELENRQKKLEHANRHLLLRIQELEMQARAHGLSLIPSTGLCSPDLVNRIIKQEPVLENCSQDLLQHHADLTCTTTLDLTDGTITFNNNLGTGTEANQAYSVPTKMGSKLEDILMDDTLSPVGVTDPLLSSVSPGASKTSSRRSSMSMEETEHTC
# [12] = Trypanosoma cruzi growth suppression in host cells – NIH3T3 host cells, beta-gal luminescence, confirmation (AID 2044); type: functional, cell-based;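 note: intracellular parasites grown in NIH/3T3 mouse fibroblasts as host cells; luminescent beta-galactosidase reporter signal from transgenic T. cruzi replicating inside host cells; inhibitors lower the luminescence signal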
# Protein skinhead-1 = biological target: T3, Protein skinhead-1 (Caenorhabditis elegans, UniProt P34707); type: functional
# T3 sequence (P34707 whole entry): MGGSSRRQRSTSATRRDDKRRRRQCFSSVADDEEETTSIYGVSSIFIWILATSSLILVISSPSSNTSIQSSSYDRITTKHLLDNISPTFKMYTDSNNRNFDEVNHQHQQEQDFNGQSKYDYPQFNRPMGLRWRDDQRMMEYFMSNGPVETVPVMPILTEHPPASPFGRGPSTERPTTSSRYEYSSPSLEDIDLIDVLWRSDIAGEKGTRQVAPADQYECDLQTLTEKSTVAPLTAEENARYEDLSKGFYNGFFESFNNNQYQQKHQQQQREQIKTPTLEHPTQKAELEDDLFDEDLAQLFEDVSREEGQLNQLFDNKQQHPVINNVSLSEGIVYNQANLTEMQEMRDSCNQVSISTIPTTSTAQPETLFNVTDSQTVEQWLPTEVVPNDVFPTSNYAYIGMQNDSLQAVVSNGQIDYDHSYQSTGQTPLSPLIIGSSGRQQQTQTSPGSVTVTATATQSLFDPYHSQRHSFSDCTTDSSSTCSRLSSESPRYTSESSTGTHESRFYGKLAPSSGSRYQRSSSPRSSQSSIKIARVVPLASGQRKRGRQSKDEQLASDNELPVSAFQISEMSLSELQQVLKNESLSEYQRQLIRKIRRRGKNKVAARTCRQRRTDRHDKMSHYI
# [13] = general mammalian cell viability loss – inhibitor set, cherry-pick, set 2, cytotoxicity control for miR-122 modulator project, dose response (AID 720697); type: functional, cell-based
# [14] = NIH3T3 cell viability loss – ATP luminescence, mouse fibroblasts, counter-screen, dose response (AID 2010); type: functional, cell-based;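 note: cells exposed to compound for about 90 hours before reading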
# [15] = Luminescence Cell-Based Dose Retest to Confirm Inhibitors of Cancer Stem Cells. [Related pubchem assays (depositor defined):AID2717, AID2721]; type: functional; conditions: Homo sapiens
# [16] = biological target: T4, Histone-lysine N-methyltransferase NSD2 (Homo sapiens, UniProt O96028); type: biochemical
# T4 sequence (O96028 whole entry): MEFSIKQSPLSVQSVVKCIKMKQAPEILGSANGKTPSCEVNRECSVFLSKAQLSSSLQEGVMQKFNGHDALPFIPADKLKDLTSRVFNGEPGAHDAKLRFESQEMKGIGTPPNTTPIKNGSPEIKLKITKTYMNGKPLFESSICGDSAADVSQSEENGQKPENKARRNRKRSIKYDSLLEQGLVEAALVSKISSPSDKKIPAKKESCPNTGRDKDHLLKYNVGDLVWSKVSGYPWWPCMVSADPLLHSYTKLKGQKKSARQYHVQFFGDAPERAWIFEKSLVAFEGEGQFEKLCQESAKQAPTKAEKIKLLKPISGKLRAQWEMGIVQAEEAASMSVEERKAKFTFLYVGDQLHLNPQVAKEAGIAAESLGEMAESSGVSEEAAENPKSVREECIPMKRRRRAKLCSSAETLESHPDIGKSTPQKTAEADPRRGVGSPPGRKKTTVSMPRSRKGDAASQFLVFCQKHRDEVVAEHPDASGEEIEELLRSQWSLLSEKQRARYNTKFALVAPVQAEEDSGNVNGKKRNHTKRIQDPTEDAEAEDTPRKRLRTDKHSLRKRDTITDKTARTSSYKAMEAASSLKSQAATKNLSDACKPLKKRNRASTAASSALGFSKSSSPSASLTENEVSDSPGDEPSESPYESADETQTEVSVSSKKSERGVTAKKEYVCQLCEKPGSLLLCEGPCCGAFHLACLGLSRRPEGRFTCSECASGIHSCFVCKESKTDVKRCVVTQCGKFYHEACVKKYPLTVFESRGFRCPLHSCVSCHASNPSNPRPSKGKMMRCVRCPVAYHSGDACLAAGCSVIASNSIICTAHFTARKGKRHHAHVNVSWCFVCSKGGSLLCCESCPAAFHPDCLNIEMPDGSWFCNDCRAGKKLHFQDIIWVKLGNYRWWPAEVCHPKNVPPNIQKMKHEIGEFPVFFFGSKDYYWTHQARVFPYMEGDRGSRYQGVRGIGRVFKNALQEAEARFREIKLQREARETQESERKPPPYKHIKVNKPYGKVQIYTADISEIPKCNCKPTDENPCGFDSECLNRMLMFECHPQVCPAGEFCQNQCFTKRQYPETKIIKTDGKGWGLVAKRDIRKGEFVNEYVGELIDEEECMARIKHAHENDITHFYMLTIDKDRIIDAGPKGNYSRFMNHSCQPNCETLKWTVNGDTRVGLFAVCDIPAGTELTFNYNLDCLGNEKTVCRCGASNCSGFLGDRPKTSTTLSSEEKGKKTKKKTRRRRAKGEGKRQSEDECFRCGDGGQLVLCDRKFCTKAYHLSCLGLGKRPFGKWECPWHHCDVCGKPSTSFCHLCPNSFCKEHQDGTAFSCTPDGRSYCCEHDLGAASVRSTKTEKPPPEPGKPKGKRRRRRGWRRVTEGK
# [17] = biological target: Peroxisome proliferator-activated receptor gamma/Nuclear receptor coactivator 2 (Homo sapiens, UniProt P37231); type: functional;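 note: agonist potency for raising coactivator recruitment to the receptor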
# Chain of Peroxisome proliferator-activated receptor gamma/Nuclear receptor coactivator 2 (P37231 whole entry): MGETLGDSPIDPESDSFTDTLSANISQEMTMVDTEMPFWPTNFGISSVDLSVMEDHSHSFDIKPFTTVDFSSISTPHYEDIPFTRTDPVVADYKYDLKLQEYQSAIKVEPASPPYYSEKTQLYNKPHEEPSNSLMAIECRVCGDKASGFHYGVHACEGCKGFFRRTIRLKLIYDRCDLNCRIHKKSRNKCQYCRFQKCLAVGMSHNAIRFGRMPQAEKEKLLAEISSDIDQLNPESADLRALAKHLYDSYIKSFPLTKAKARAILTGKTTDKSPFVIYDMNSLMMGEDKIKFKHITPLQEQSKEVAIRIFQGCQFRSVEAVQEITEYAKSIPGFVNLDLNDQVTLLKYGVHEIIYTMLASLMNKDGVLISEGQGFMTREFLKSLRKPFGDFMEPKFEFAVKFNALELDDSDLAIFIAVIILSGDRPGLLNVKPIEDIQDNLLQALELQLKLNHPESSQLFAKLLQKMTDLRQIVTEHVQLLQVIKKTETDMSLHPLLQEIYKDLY
# Chain of Peroxisome proliferator-activated receptor gamma/Nuclear receptor coactivator 2 (Q15596 whole entry, further chain): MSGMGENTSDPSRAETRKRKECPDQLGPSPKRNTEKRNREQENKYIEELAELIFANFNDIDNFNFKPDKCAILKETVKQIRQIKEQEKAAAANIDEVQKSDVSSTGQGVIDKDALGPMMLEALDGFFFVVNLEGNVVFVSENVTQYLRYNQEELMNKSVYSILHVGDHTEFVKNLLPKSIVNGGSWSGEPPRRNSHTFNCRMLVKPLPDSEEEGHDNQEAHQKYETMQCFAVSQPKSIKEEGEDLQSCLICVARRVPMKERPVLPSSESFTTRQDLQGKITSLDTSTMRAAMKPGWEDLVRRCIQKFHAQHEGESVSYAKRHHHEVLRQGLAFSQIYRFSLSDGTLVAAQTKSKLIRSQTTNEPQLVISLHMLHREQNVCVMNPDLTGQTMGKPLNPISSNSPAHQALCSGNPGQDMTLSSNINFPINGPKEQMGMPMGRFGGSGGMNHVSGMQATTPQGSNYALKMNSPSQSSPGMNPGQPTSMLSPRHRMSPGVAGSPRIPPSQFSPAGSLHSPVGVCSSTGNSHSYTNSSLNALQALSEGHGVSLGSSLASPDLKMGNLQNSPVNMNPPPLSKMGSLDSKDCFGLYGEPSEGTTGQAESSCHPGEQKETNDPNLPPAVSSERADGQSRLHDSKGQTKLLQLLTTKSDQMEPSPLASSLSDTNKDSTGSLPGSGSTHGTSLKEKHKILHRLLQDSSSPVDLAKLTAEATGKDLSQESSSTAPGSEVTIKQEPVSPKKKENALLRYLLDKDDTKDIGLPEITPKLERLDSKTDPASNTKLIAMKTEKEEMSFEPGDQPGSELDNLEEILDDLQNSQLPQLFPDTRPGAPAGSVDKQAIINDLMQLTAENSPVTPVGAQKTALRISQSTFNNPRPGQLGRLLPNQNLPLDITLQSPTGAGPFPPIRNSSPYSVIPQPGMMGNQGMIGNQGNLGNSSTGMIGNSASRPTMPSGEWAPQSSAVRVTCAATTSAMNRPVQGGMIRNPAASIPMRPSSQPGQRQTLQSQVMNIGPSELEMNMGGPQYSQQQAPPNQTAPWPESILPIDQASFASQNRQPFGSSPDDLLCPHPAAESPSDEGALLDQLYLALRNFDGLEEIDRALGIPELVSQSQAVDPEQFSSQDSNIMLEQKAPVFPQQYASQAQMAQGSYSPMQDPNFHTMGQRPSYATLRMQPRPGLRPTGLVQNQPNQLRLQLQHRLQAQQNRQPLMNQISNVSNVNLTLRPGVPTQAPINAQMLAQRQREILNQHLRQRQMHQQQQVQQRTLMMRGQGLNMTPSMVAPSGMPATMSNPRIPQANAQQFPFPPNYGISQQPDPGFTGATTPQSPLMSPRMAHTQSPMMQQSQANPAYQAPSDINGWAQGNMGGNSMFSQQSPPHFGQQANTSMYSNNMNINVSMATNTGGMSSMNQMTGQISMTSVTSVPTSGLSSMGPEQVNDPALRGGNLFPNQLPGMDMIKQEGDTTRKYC
# [18] = biological target: Peroxisome proliferator-activated receptor gamma/Nuclear receptor coactivator 3 (Homo sapiens, UniProt P37231); type: functional;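 note: agonist potency for raising coactivator recruitment to the receptor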
# [19] = biological target: Peroxisome proliferator-activated receptor gamma/Nuclear receptor coactivator 1 (Homo sapiens, UniProt P37231); type: functional;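 note: agonist potency as compounds enhance coactivator SRC-1 recruitment to PPARgamma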
# Chain of Peroxisome proliferator-activated receptor gamma/Nuclear receptor coactivator 1 (P37231 whole entry): as the sequence (P37231 whole entry) above
# Chain of Peroxisome proliferator-activated receptor gamma/Nuclear receptor coactivator 1 (Q15788 whole entry, further chain): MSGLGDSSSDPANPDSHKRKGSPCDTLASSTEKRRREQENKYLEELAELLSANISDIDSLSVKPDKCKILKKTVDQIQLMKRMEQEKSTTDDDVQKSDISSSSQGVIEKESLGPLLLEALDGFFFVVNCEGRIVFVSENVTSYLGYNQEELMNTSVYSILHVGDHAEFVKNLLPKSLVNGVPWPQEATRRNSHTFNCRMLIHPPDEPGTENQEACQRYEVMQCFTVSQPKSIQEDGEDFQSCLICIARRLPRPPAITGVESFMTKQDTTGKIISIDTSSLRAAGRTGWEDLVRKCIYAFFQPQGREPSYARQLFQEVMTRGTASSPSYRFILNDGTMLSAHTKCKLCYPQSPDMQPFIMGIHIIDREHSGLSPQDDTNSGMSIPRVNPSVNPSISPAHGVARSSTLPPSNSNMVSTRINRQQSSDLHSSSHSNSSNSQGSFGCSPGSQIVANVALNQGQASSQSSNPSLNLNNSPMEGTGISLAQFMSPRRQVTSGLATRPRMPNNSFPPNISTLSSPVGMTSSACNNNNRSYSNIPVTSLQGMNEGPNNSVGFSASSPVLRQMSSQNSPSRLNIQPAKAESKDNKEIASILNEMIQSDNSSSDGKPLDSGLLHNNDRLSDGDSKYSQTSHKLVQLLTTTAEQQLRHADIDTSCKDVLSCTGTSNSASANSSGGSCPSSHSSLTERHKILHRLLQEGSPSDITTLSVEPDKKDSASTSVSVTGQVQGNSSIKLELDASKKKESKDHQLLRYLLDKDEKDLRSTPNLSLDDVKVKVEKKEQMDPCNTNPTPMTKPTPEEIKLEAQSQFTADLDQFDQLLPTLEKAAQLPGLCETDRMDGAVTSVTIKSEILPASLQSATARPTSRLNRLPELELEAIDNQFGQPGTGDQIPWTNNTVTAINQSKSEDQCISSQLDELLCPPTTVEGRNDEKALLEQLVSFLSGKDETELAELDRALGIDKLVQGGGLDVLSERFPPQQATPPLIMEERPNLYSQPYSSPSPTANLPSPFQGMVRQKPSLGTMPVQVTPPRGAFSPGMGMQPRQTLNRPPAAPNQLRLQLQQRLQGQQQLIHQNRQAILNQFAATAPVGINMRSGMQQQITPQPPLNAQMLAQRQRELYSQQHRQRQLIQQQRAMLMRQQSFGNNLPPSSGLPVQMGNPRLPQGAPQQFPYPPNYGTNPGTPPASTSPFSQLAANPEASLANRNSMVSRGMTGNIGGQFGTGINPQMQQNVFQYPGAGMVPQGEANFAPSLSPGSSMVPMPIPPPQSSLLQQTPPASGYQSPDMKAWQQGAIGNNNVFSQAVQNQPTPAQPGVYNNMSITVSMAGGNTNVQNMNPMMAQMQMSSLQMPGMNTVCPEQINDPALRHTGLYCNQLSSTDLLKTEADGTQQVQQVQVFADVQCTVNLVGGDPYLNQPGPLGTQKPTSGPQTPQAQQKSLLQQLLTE
# [20] = growth inhibition of yeast DHODH-expressing 3D7 parasites – SYBR Green, dry powder samples, dose response (AID 1159570); type: functional, cell-based;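 note: parasite growth measured after 72 hours of compound exposure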
# [21] = growth inhibition of PfATP4-mutant resistant parasites – NITD609-resistant line, SYBR Green, dry powder, dose response (AID 1159571); type: functional, cell-based;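 note: parasites synchronized at ring stage by sorbitol before testing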
# [22] = Dd2 malaria parasite growth inhibition potency – SYBR Green, dry powder samples, dose response (AID 1159566); type: functional, cell-based;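 note: potency for growth inhibition with lower SYBR green DNA signal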
# [23] = P. falciparum Dd2 growth inhibitors, dose response, SYBR Green, cherry-picked samples (AID 1159567); type: functional, cell-based
smiles,measurement,setting,value
Cc1ccc(NC(=O)C2CCN(c3nc(C)cc(C)n3)CC2)cc1,IC50,[1],> 109 µM (inactive)
same,IC50,[2],> 83.3 µM (inactive)
COc1ccc(OC)c(Nc2nc(N)nc(-c3cc4ccccc4o3)n2)c1,IC50,H9c2,> 79 µM (inactive)
same,IC50,[3],47.8 µM (not active)
CCn1c(C(C)NC(C)=O)nc2ccccc21 (centres undefined),IC50,[3],> 93.1 µM (not active)
Nc1nc2ccccc2n1CCOc1ccc(Br)cc1,CC50,[4],39.4 µM (active)
same,IC50,cells,31.8 µM (active)
O=C(Cc1c[nH]c2ccccc12)Nc1nccs1,IC50,[1],> 109 µM (inactive)
same,IC50,[2],> 83.3 µM (inactive)
COc1cccc(N2CCN(c3[nH]cnc4c5ccccc5nc3-4)CC2C)c1 (centres undefined),EC50,[5],3.01 µM (active)
same,CC50,[6],7.28 µM (active)
same,EC50,[7],3.33 µM (active)
Cc1cc(C(=O)Nc2cccc(C(=O)O)c2)oc1C,EC50,HT-1080,> 50 µM (not active)
same,EC50,[8],6.56 µM (active)
same,IC50,[9],> 100 µM (not active)
same,EC50,[10],< 0.2 µM (active)
same,AC50,[11],4.35 µM (active)
N=c1c2c(-c3ccccc3)c(-c3ccccc3)n(Cc3ccccc3)c2ncn1CCCO,EC50,[12],1.26 µM (active)
same,IC50,Protein skinhead-1,> 100 µM (inactive)
same,AC50,[13],7.08 µM (active)
same,EC50,[14],> 60 µM (inconclusive)
CCCn1c(=S)[nH]c2cc(C(=O)N3CCc4ccccc4C3)ccc2c1=O,IC50,[1],> 109 µM (inactive)
same,IC50,[2],> 83.3 µM (inactive)
O=C(CCCn1c(=O)[nH]c2cc(Cl)ccc2c1=O)NCCCN1CCCC1,IC50,[1],> 109 µM (inactive)
same,IC50,[2],> 83.3 µM (inactive)
CC(C)(C)c1nc(N2CCN(C(=O)c3ccco3)CC2)c2nnn(Cc3ccccc3Cl)c2n1,AC50,[15],3.44 µM (active)
same,EC50,[5],5.38 µM (active)
same,EC50,[7],4.47 µM (active)
CNCCCOc1cccc(OC(C)C)c1,AC50,[16],17.3 µM (active)
CCN(CC)CCCNC(=O)c1ccc2c(SCC(=O)O)c3c(nc2c1)CCC3,EC50,[17],> 79.4 µM (not active)
same,EC50,[18],> 79.4 µM (not active)
same,EC50,[19],> 79.4 µM (not active)
COc1ccc(-c2c3c([nH]c(=S)c2C#N)CCC3)cc1,IC50,[3],17.6 µM (not active)
Cc1ccccc1-n1c(S)nnc1-c1ccco1,EC50,[17],> 79.4 µM (not active)
same,EC50,[18],> 79.4 µM (not active)
same,EC50,[19],> 79.4 µM (not active)
C/C=C/c1ccc([C@H]2[C@@H](CO)N[C@@H]2CN(CC)C(=O)CN2CCOCC2)cc1,AC50,[13],47.6 µM (active)
CN(C)/C=N/C(=O)/C(C#N)=C1\CCc2ccccc2N1,IC50,[3],> 93.1 µM (not active)
COCCCNC(=O)c1c(N)n(/N=C/c2cccs2)c2nc3ccccc3nc12,EC50,[5],> 20 µM (not active)
same,EC50,[7],9.78 µM (active)
COc1ccc(C#Cc2ccc3c(c2)O[C@@H](CN(C)C(=O)Nc2cccc(OC)c2)[C@H](C)CN([C@H](C)CO)S3(=O)=O)cc1,AC50,[20],0.799 µM (active)
same,AC50,[21],0.986 µM (active)
same,AC50,[22],0.662 µM (active)
same,AC50,[23],1.5 µM (active)
C[C@H](CO)N1C[C@H](C)[C@H](CN(C)S(=O)(=O)c2ccc(C#N)cc2)OCc2ccccc2-c2c(n(C)c3ccccc23)C1=O,AC50,[20],0.563 µM (active)
same,AC50,[21],0.41 µM (active)
same,AC50,[22],0.314 µM (active)
same,AC50,[23],1.25 µM (active)
COc1ccc(-c2cc3nnc(-c4ccccc4)nc3s2)cc1,EC50,HT-1080,> 50 µM (not active)
same,IC50,[9],> 100 µM (not active)
same,EC50,[10],0.27 µM (active)
NC(N)=Nc1nc(CSCCC(N)=NS(N)(=O)=O)cs1 [FAMOTIDINE],EC50,[17],> 79.4 µM (not active)
same,EC50,[18],> 79.4 µM (not active)
same,EC50,[19],> 79.4 µM (not active)
